Reference: PubChem BioAssay (NCI)
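A five-concentration, 48-hour dose response in 96-well plates underlies each endpoint, interpolated linearly between surrounding concentrations. TGI: total growth inhibition.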

How the values were obtained:
Assay in all cases: NCI-60 cell line screen, 48 h
BT-549 breast = system: BT-549 breast
DU-145 prostate = system: DU-145 prostate
EKVX NSCLC = system: EKVX NSCLC
KM12 colon = system: KM12 colon
NCI-H23 lung = system: NCI-H23 lung
NCI-H522 lung = system: NCI-H522 lung
PC-3 prostate = system: PC-3 prostate
SF-539 CNS = system: SF-539 CNS
SK-MEL-2 melanoma = system: SK-MEL-2 melanoma
SN12C renal = system: SN12C renal
T-47D breast = system: T-47D breast

SMILES	TGI (BT-549 breast)	TGI (DU-145 prostate)	TGI (EKVX NSCLC)	TGI (KM12 colon)	TGI (NCI-H23 lung)	TGI (NCI-H522 lung)	TGI (PC-3 prostate)	TGI (SF-539 CNS)	TGI (SK-MEL-2 melanoma)	TGI (SN12C renal)	TGI (T-47D breast)
CCO/C(O)=C(/C(=N)N1CCCC1)C(=O)Nc1ccc(Cl)cc1	> 100 µM	> 100 µM	> 100 µM	> 100 µM	> 100 µM	> 100 µM	> 100 µM	> 100 µM	> 100 µM	> 100 µM	> 100 µM
CC(C)(C)C(=O)Nc1cccc(-c2ccc[nH]2)n1	> 100 µM	> 100 µM	> 100 µM	> 100 µM	> 100 µM	> 100 µM	> 100 µM	> 100 µM	> 100 µM	> 100 µM	> 100 µM
CC(C)C(Cl)CC/C(CBr)=C(\Cl)CCl (centres undefined)	3.99 µM	26.3 µM	34 µM	16.4 µM	8.65 µM	2.49 µM	23.9 µM	29.5 µM	5.64 µM	10.2 µM	3.29 µM
CC(Oc1ccc(Cl)cc1Cl)C(=O)NN1C(=O)CSC1c1ccc(Cl)cc1 (centres undefined)	> 100 µM	> 100 µM	> 100 µM	> 100 µM	> 100 µM	> 100 µM	> 100 µM	43.9 µM	> 100 µM	37.8 µM	> 100 µM
COc1cc(/C=N/NC2=NCCCN2)ccc1O	> 100 µM	> 100 µM	> 100 µM	> 100 µM	> 100 µM	> 100 µM	> 100 µM	> 100 µM	> 100 µM	> 100 µM	> 100 µM
O=C1CCSc2c(cnc3ccccc23)N1	> 100 µM	> 100 µM	> 100 µM	> 100 µM	> 100 µM	> 100 µM	> 100 µM	> 100 µM	> 100 µM	> 100 µM	> 100 µM
COc1ccc(CCN(C)C(=O)CC(C#N)(c2ccccc2)c2ccc(OC)c(OC)c2)cc1OC (centres undefined)	> 100 µM	> 100 µM	> 100 µM	> 100 µM	> 100 µM	> 100 µM	> 100 µM	> 100 µM	> 100 µM	> 100 µM	> 100 µM
C#C[C@]1(O)CC[C@H]2[C@@H]3CCC4=C/C(=N\OCCN5CCCC5)CC[C@]4(C)[C@H]3CC[C@@]21C	43.6 µM	41 µM	38.1 µM	19.6 µM	31.3 µM	12 µM	32.6 µM	28.2 µM	24.4 µM	43.7 µM	60.4 µM
COC(=O)c1cc(C#N)[nH]c1-c1cccs1	> 100 µM	> 100 µM	> 100 µM	> 100 µM	> 100 µM	> 100 µM	> 100 µM	> 100 µM	–	> 100 µM	> 100 µM
CCOC(=O)Oc1cc2c(ccn2C)c2c1c1ccccc1n2C(=O)OCC	> 100 µM	> 100 µM	> 100 µM	> 100 µM	> 100 µM	> 100 µM	> 100 µM	> 100 µM	> 100 µM	> 100 µM	> 100 µM
CC(=C(C(=O)O)C(=O)O)c1cc(-c2cccs2)cc(-c2ccc(Cl)cc2)c1O	34.4 µM	30.6 µM	32.2 µM	24.2 µM	32.6 µM	33.3 µM	28.3 µM	29.8 µM	> 88.6 µM	30.5 µM	21.3 µM
N#CC1=C(N2CCOCC2)CCC1	> 100 µM	> 100 µM	> 100 µM	> 100 µM	> 100 µM	> 100 µM	> 100 µM	> 100 µM	> 100 µM	> 100 µM	> 100 µM
C=CC(c1ccccc1)C1(O)c2cccc(O)c2C(=O)c2c(O)cccc21 (centres undefined)	34.8 µM	28.8 µM	38.6 µM	40.9 µM	30.8 µM	30.1 µM	28.1 µM	84.5 µM	26.4 µM	–	42.3 µM
O=C1OC2(c3ccc(O)cc3Oc3cc(O)ccc32)c2c1c(-c1ccccc1)c(-c1ccccc1)c(-c1ccccc1)c2-c1ccccc1	53.8 µM	35.2 µM	59.1 µM	32.3 µM	–	32.6 µM	32.7 µM	40.8 µM	36.3 µM	60.3 µM	71.4 µM
COc1ccccc1CNCc1nc2ccccc2[nH]1	> 100 µM	> 100 µM	> 100 µM	> 100 µM	> 100 µM	> 100 µM	> 100 µM	> 100 µM	> 100 µM	> 100 µM	> 100 µM
CCOC(=O)c1c(-c2ccccc2)[nH]c2ccc(Cl)cc2c1=O	> 100 µM	> 100 µM	> 100 µM	> 100 µM	> 100 µM	60.8 µM	> 100 µM	> 100 µM	> 100 µM	> 100 µM	62 µM
CO[C@H](c1ccccc1)[C@H](O)[C@](O)(c1ccccc1)P(=O)(OC)OC	> 100 µM	> 100 µM	> 100 µM	> 100 µM	> 100 µM	> 100 µM	> 100 µM	> 100 µM	> 100 µM	> 100 µM	> 100 µM
